18 molecules from ChEMBL document CHEMBL4476867, “Hydroxy formamide derivatives and their use” (2016) can be followed below.

Test [1] deals with T1, Bone morphogenetic protein 1 (Homo sapiens, UniProt P13497).
T1 sequence (P13497 whole entry): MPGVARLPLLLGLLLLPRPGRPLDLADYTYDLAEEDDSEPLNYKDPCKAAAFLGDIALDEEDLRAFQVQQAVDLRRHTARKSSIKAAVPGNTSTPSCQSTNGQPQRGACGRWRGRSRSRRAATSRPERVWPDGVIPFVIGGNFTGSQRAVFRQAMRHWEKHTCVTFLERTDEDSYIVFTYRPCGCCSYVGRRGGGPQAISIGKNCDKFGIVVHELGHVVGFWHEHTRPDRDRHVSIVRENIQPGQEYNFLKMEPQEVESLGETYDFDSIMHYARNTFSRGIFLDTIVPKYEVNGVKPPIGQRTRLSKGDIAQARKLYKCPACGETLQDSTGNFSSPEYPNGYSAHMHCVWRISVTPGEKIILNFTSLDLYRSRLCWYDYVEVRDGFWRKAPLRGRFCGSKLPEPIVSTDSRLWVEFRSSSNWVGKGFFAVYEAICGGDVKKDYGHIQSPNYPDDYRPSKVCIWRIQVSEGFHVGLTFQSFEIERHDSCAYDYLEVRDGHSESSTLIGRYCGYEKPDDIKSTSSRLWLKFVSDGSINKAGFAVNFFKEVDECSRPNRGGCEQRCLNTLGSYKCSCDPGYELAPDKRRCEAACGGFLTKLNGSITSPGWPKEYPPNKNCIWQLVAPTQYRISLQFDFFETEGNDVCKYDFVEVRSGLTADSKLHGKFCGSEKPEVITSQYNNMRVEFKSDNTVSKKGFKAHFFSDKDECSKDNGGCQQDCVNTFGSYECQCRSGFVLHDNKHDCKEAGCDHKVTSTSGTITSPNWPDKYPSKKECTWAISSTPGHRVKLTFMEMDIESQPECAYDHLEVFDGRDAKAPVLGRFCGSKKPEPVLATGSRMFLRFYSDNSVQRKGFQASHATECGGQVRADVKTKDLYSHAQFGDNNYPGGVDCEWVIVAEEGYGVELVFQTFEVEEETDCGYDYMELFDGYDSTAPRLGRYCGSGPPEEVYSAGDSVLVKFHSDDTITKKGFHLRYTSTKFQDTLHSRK
In words: Inhibition of C-terminal FLAG-6x-His epitope tagged and N-terminal human RAGE signal sequence tagged human BMP1 (23 to 721 amino acids) expressed in CHO-E1 cells pre-incubated for 10 mins before promyostatin peptide substrate addition and measured after 60 mins using 0.5 nM BMP1 by FRET based assay. Type of test: cell-based.

Test [2] deals with T1, Bone morphogenetic protein 1. Kind of test: Inhibition of C-terminal FLAG-6x-His epitope tagged and N-terminal human RAGE signal sequence tagged human BMP1 (23 to 721 amino acids) expressed in CHO-E1 cells pre-incubated for 10 mins before promyostatin peptide substrate addition and measured after 30 mins using 50 nM BMP1 by FRET based assay. It counts as cell-based.
Another test deals with T2, Tolloid-like protein 2 (Homo sapiens, UniProt Q9Y6L7).
T2 sequence (Q9Y6L7 whole entry): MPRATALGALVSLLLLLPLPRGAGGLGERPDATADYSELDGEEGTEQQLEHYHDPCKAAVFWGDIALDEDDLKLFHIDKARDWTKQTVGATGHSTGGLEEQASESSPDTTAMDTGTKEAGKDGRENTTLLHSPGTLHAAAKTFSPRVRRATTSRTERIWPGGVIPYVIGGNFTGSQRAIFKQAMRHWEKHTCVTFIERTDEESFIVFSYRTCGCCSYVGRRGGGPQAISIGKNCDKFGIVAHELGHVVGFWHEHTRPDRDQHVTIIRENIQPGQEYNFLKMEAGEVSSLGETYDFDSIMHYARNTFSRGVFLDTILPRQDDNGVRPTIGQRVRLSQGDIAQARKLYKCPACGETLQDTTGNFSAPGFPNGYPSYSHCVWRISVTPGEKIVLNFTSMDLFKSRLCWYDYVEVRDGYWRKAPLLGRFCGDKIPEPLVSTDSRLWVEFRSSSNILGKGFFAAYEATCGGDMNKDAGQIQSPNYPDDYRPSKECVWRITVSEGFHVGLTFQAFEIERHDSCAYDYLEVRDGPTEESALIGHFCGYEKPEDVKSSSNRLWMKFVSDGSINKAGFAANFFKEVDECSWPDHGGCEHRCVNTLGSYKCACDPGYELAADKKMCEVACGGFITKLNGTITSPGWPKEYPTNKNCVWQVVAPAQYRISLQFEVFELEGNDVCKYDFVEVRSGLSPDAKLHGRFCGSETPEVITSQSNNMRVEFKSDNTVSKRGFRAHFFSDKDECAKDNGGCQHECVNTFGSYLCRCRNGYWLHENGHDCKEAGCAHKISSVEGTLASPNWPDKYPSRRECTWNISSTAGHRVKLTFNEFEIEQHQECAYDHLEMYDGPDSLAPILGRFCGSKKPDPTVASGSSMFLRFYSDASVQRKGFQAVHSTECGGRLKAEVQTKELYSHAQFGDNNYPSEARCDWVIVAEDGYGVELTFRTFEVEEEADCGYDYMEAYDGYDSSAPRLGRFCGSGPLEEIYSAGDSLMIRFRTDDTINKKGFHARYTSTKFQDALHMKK
Kind of test: Inhibition of C-terminal Avi-6x-His epitope tagged and N-terminal human RAGE signal sequence tagged recombinant human TLL2 (26 to 1015 amino acids) expressed in CHOE1A cells incubated for 60 mins with promyostatin peptide substrate by FRET based assay. It counts as cell-based.

The nature of test [3]: Reduction in PICP levels in human cardiac fibroblasts incubated for 24 to 48 hrs by ELISA. It counts as functional. An outline of the steps: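 Human cardiac fibroblasts (passage 6 or below) were seeded at 10,000 to 15,000 cells per well in 96-well plates. The next day they were treated in ficoll crowding EMEM with 100 μM ascorbic acid and under 0.3% DMSO, for 24 to 48 hr at 37° C. Procollagen I C-terminal propeptide in the medium was measured with a Quidel ELISA. IC50 came from fitting levels relative to untreated controls to a log(inhibitor)-response equation in GraphPad Prism.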
On the technique in general: An ELISA detects its analyte on a solid surface through an enzyme-linked reagent.

A further test has as its target Tolloid-like protein 1 (Homo sapiens, UniProt O43897, I156V/N221S/V284A). In words: Inhibition of recombinant human TLL1 I156V/N221S/V284A mutant expressed in CHOE1A cells pre-incubated for 10 mins before promyostatin peptide substrate addition and measured after 60 mins by FRET based assay. Type of test: cell-based.

Tolloid-like protein 1, sequence (O43897 148-1013 I156V/N221S/V284A limits assumed): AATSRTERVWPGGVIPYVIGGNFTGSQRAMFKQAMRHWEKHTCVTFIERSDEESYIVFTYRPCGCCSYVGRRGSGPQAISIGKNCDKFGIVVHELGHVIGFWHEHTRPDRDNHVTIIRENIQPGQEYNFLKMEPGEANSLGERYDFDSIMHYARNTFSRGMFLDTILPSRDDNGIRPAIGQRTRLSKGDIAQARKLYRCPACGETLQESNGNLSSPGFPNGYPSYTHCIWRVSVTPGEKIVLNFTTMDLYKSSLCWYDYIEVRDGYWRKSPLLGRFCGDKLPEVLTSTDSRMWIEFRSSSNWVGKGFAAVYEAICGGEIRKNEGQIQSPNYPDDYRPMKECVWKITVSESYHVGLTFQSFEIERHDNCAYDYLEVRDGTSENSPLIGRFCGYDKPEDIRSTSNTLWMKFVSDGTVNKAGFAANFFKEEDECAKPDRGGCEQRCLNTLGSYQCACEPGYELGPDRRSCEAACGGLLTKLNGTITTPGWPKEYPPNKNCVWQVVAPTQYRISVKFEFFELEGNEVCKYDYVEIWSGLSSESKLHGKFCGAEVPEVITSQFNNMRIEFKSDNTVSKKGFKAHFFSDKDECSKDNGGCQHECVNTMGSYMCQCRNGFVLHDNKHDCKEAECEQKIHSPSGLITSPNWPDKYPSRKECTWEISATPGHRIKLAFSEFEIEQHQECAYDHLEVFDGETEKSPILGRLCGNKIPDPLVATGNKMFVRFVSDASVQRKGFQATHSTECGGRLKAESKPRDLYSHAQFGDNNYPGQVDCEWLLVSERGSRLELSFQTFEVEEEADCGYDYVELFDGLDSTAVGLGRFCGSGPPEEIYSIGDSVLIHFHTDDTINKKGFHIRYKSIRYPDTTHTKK

As a reminder, the IC50 is the concentration needed to halve the response being measured. `CCCCC[C@@H](C(=O)NCNC(=O)c1ccc(-c2ccc(C(=O)N[C@H](CC(=O)O)C(=O)O)cc2)o1)[C@@H](CC)N(O)C=O`: the IC50 is less than 126 nM in test [1]; less than 200 nM in test [2]; less than 794 nM at Tolloid-like protein 2; less than 3.98 µM in test [3]; less than 398 nM at Tolloid-like protein 1.

Take `CCCCC[C@@H](C(=O)NCNC(=O)c1ccc(-c2ccc(C(=O)N[C@@H](CC(=O)O)C(=O)O)c(C)c2)o1)[C@@H](CC)N(O)C=O`: the half-inhibitory concentration (IC50) in test [1] was less than 126 nM; in test [2] it was less than 200 nM; on Tolloid-like protein 2, less than 794 nM; in test [3], less than 3.98 µM; at Tolloid-like protein 1 it was less than 398 nM.

For the molecule `CCCCC[C@@H](C(=O)NCNC(=O)c1ccc(-c2cc(OCC(N)=O)cc(C(=O)O)c2)o1)[C@@H](CC)N(O)C=O`, the IC50 in test [1] was less than 126 nM; in test [2], less than 200 nM; at Tolloid-like protein 2, less than 794 nM; in test [3], less than 3.98 µM; on Tolloid-like protein 1, less than 398 nM.

In the case of `CCCCC[C@@H](C(=O)NCNC(=O)c1ccc(-c2ccc(C(=O)O)c(O)c2)o1)[C@@H](CC)N(O)C=O`, the IC50 was less than 126 nM in test [1]; less than 200 nM in test [2]; less than 794 nM on Tolloid-like protein 2; less than 3.98 µM in test [3]; less than 398 nM on Tolloid-like protein 1.

Take `CCCCC[C@@H](C(=O)NCNC(=O)c1ccc(-c2ccc(C(=O)N[C@@H](CCC(=O)O)C(=O)O)cc2)o1)[C@@H](CC)N(O)C=O`: the half-maximal inhibitory concentration (IC50) in test [1] was less than 126 nM; in test [2], less than 200 nM; on Tolloid-like protein 2, less than 794 nM; in test [3], less than 3.98 µM; at Tolloid-like protein 1, less than 398 nM.

As to `CCCCC[C@@H](C(=O)NCNC(=O)c1ccc(-c2cc(O)cc(P(=O)(O)O)c2)o1)[C@@H](CC)N(O)C=O`, the 50% inhibitory concentration (IC50) in test [1] is less than 126 nM; in test [2] it was less than 200 nM; at Tolloid-like protein 2, less than 794 nM; in test [3], less than 3.98 µM; on Tolloid-like protein 1, less than 398 nM.

`CCCCC[C@@H](C(=O)NCNC(=O)c1ccc(-c2cc(OCC(=O)O)cc(C(=O)N[C@@H](CC(=O)O)C(=O)O)c2)o1)[C@@H](CC)N(O)C=O`: the IC50 was less than 126 nM in test [1]; less than 200 nM in test [2]; less than 794 nM at Tolloid-like protein 2; less than 3.98 µM in test [3]; less than 398 nM at Tolloid-like protein 1.

As for `CCCCC[C@@H](C(=O)NCNC(=O)c1ccc(-c2ccc(C(=O)O)c(C(=O)O)c2)o1)[C@@H](CC)N(O)C=O`, the IC50 was less than 126 nM in test [1]; less than 200 nM in test [2]; less than 794 nM at Tolloid-like protein 2; less than 3.98 µM in test [3]; less than 398 nM at Tolloid-like protein 1.

In the case of `CCCCC[C@@H](C(=O)NCNC(=O)c1ccc(-c2ccc(C(=O)NCP(=O)(O)O)c(O)c2)o1)[C@@H](CC)N(O)C=O`, the IC50 in test [1] was less than 126 nM; in test [2], less than 200 nM; on Tolloid-like protein 2, less than 794 nM; in test [3], less than 3.98 µM; at Tolloid-like protein 1, less than 398 nM.

Consider `CCCCC[C@@H](C(=O)NCNC(=O)c1ccc(-c2ccc(C(=O)N[C@@H](CCC(=O)O)C(=O)O)c(OCC)c2)o1)[C@@H](CC)N(O)C=O`, for which the IC50 is less than 126 nM in test [1]; less than 200 nM in test [2]; less than 794 nM on Tolloid-like protein 2; less than 3.98 µM in test [3]; less than 398 nM on Tolloid-like protein 1.

Take `CCCCC[C@@H](C(=O)NCNC(=O)c1ccc(-c2cc(CN(C)CC(=O)O)cc(OCC)c2)o1)[C@@H](CC)N(O)C=O`: the IC50 in test [1] is less than 126 nM; in test [2] it was less than 200 nM; on Tolloid-like protein 2, less than 794 nM; in test [3] it was less than 3.98 µM; on Tolloid-like protein 1, less than 398 nM.

For `CCCCC[C@@H](C(=O)NCNC(=O)c1ccc(-c2ccc(C(=O)NCP(=O)(O)O)cc2)o1)[C@@H](CC)N(O)C=O`, the IC50 in test [1] was less than 126 nM; in test [2], less than 200 nM; at Tolloid-like protein 2 it was less than 794 nM; in test [3], less than 3.98 µM; on Tolloid-like protein 1, less than 398 nM.

Take `CCCCC[C@@H](C(=O)NCNC(=O)c1ccc(-c2cc(OCC(=O)O)cc(P(=O)(O)O)c2)o1)[C@@H](CC)N(O)C=O`: the IC50 is less than 126 nM in test [1]; less than 200 nM in test [2]; less than 794 nM at Tolloid-like protein 2; less than 3.98 µM in test [3]; less than 398 nM on Tolloid-like protein 1.

As for `CCCCC[C@@H](C(=O)NCNC(=O)c1ccc(-c2cc(CNCP(=O)(O)O)cc(OCC)c2)o1)[C@@H](CC)N(O)C=O`, the IC50 in test [1] was less than 126 nM; in test [2] it was less than 200 nM; on Tolloid-like protein 2, less than 794 nM; in test [3] it was less than 3.98 µM; at Tolloid-like protein 1, less than 398 nM.

In the case of `CCOc1cc(-c2ccc(C(=O)NCNC(=O)[C@H](CCc3ccccc3)[C@@H](CC)N(O)C=O)o2)cc(P(=O)(O)O)c1`, the IC50 in test [1] was less than 126 nM; in test [2], less than 200 nM; on Tolloid-like protein 2, less than 794 nM; in test [3] it was less than 3.98 µM; on Tolloid-like protein 1, less than 398 nM.

In the case of `CCCCC[C@@H](C(=O)NCNC(=O)c1ccc(-c2ccc(C(=O)N[C@@H](CC(=O)O)C(=O)O)cc2)o1)[C@@H](CC)N(O)C=O`, the IC50 in test [1] was less than 126 nM; in test [2], less than 200 nM; at Tolloid-like protein 2, less than 794 nM; in test [3], less than 3.98 µM; at Tolloid-like protein 1 it was less than 398 nM.

As to `CCCCC[C@@H](C(=O)NCNC(=O)c1ccc(-c2ccc(C(=O)N(CC(=O)O)CC(=O)O)cc2)o1)[C@@H](CC)N(O)C=O`, the half-maximal inhibitory concentration (IC50) in test [1] is less than 126 nM; in test [2] it was less than 200 nM; on Tolloid-like protein 2, less than 794 nM; in test [3], less than 3.98 µM; on Tolloid-like protein 1 it was less than 398 nM.

Consider `CCCCC[C@@H](C(=O)NCNC(=O)c1ccc(-c2ccc(C(=O)NCP(=O)(O)O)c(C)c2)o1)[C@@H](CC)N(O)C=O`, for which the IC50 is less than 126 nM in test [1]; less than 200 nM in test [2]; less than 794 nM on Tolloid-like protein 2; less than 3.98 µM in test [3]; less than 398 nM at Tolloid-like protein 1.
